Drawing on ChEMBL document CHEMBL5550146, “Design, synthesis, and biological evaluation of novel sesquiterpene lactone derivatives as PKM2 activators with potent anti-ulcerative colitis activities” (Eur J Med Chem, 2024), this text covers AC50, IC50 and Activity for 31 compounds.

The structures appear in SMILES notation. Calls of active or inactive are those of the source. The rule behind the calls is not given here.

The AC50 is the concentration at which the activity in the assay is half-maximal. The IC50 is the concentration that inhibits the measured activity by half. Lower therefore signals inhibition by little substance.

The target in one test is Pyruvate kinase PKM (Homo sapiens, UniProt P14618). Kind of test: Activation of recombinant human PKM2 incubated for 40 mins by pyruvate kinase assay.
The test system of a further test is T-cell. Put plainly: Antiproliferative activity against concanavalin A-stimulated C57BL/6 mouse T cells measured after 48 hrs by CCK8 assay. It counts as functional, cell-based. Conditions: C57BL/6, T-cell. Background: Tetrazolium dyes change colour on reduction, which living cells bring about.
The test system of another test is Mus musculus. Kind of test: Antiinflammatory activity in DSS-induced colitis female C57BL/6 mouse model assessed as reduction in shortening of colon length at 200 mg/kg, ip administered for 12 days with subsequent treatment of DSS for 9 days followed by drinking water for 3 days. It counts as functional, organism-based. Conditions: time 12.0 day.

Chain of Pyruvate kinase PKM (P14618 whole entry): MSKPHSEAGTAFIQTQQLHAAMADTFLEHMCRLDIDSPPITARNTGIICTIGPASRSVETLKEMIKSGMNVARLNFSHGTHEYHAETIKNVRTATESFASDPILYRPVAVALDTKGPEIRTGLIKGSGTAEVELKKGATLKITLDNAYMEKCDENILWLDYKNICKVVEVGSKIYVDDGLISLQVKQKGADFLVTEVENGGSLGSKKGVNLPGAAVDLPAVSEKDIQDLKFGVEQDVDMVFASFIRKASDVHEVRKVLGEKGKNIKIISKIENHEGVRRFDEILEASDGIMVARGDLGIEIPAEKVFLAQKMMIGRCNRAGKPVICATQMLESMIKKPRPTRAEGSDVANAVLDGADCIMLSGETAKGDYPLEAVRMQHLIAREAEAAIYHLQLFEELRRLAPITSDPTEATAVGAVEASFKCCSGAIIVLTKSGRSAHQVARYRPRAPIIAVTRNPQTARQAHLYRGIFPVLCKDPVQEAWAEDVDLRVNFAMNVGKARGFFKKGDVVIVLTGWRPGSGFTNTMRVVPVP

With `C=C1C(=O)O[C@H]2[C@H]1CC/C(COC(=O)NCCN(C)C)=C\CC[C@@]1(C)O[C@@H]21`, on Pyruvate kinase PKM, the AC50 was above 3 µM. Half-maximal inhibition in the test with T-cell (IC50) required 2.88 µM.

On to `C=C1C(=O)O[C@H]2[C@H]1CC/C(COC(=O)N1CCCC1)=C\CC[C@@]1(C)O[C@@H]21`, for which the AC50 on Pyruvate kinase PKM was 0.736 µM. The compound further came in with an IC50 in the test on T-cell of 1.78 µM. The matching figures for `C=C1C(=O)O[C@H]2[C@H]1CC/C(COC(=O)NCC)=C\CC[C@@]1(C)O[C@@H]21`: 2.22 µM and 1.7 µM.

On to `C=C1C(=O)O[C@H]2[C@H]1CC/C(COC(=O)NCCN(CC)CC)=C\CC[C@@]1(C)O[C@@H]21`, for which the AC50 at Pyruvate kinase PKM was above 3 µM. In the test with T-cell, this compound returned an IC50 of 2.52 µM. Take `C=C1C(=O)O[C@H]2[C@H]1CC/C(COC(=O)N1CCN(C)CC1)=C\CC[C@@]1(C)O[C@@H]21`: the AC50 at Pyruvate kinase PKM came out at 0.567 µM. The compound further registered an IC50 in the test with T-cell of 1.04 µM.

With `C=C1C(=O)O[C@H]2[C@H]1CC/C(COC(=O)NOC)=C\CC[C@@]1(C)O[C@@H]21`, the AC50 on Pyruvate kinase PKM is above 3 µM. The IC50 in the test with T-cell was found to be 2.34 µM. In the same order, the values of `C=C1C(=O)O[C@H]2[C@H]1CC/C(COC(=O)NCCC)=C\CC[C@@]1(C)O[C@@H]21` are 0.812 µM and 1.27 µM. Take `C=C1C(=O)O[C@H]2[C@H]1CC/C(CNS(C)(=O)=O)=C\CC[C@@]1(C)O[C@@H]21`: at Pyruvate kinase PKM, the AC50 is above 3 µM. In the test with T-cell, the IC50 came out at 3.15 µM.

As for `C/C1=C\CC[C@@]2(C)O[C@H]2[C@H]2OC(=O)/C(=C/c3ccccc3)[C@@H]2CC1`, in the test with T-cell, the midpoint of inhibition, the IC50, lay at 4.27 µM. `C=C1C(=O)O[C@H]2[C@H]1CC/C(CNS(=O)(=O)c1ccc(OC)cc1)=C\CC[C@@]1(C)O[C@@H]21`: the AC50 on Pyruvate kinase PKM was determined as 0.492 µM. The compound further came in with an IC50 with T-cell of 1.04 µM. Turning to `Nc1ccc(O)c(C(=O)O)c1`, in the test on Mus musculus, the result was Active. For `C=C1C(=O)O[C@H]2[C@H]1CC/C(CNS(=O)(=O)c1ccc(F)cc1)=C\CC[C@@]1(C)O[C@@H]21`, the AC50 at Pyruvate kinase PKM is 1.23 µM. Further, the IC50 in the test on T-cell turned out to be 1.5 µM. For `C=C1C(=O)O[C@H]2[C@H]1CC/C(CNS(=O)(=O)C(F)(F)F)=C\CC[C@@]1(C)O[C@@H]21`, the AC50 at Pyruvate kinase PKM was above 3 µM. Further, in the test on T-cell, the IC50 stood at 2.98 µM. In the same order, the values of `C=C1C(=O)O[C@H]2[C@H]1CC/C(CNS(=O)(=O)C1CC1)=C\CC[C@@]1(C)O[C@@H]21` are above 3 µM and 2.65 µM. Turning to `C=C1C(=O)O[C@H]2[C@H]1C[C@@H](F)/C(C)=C/CC[C@@]1(C)O[C@@H]21`, the concentration at half-maximal activity (AC50) on Pyruvate kinase PKM is above 3 µM. This compound also yielded an IC50 in the test on T-cell of 2.37 µM. In the same order, the values of `C=C1C(=O)O[C@H]2[C@H]1CC/C(COC)=C\CC[C@@]1(C)O[C@@H]21` are above 3 µM and 2.33 µM. On to `C=C1C(=O)O[C@H]2[C@H]1CC/C(COC(=O)NC)=C\CC[C@@]1(C)O[C@@H]21`, for which, at Pyruvate kinase PKM, the AC50 is above 3 µM. The compound also yielded an IC50 with T-cell of 2.6 µM. Consider `C=C1C(=O)O[C@@H]2C3O[C@]3(C)CC/C=C(\C)CC[C@@H]12` (some centres undefined), for which the AC50 on Pyruvate kinase PKM came out at 1.06 µM. This compound also showed an IC50 in the test with T-cell of 1.96 µM. In the case of `C=C1C(=O)O[C@H]2[C@H]1C[C@@H](Br)/C(C)=C/CC[C@@]1(C)O[C@@H]21`, the midpoint of inhibition with T-cell, the IC50, lay at 3.84 µM.

In the case of `C=C1C(=O)O[C@H]2[C@H]1CC/C(COC(=O)N1CCN(CC)CC1)=C\CC[C@@]1(C)O[C@@H]21`, at Pyruvate kinase PKM, the AC50 is above 3 µM. Besides, the IC50 with T-cell turned out to be 2.37 µM.

Consider `C=C1C(=O)O[C@H]2[C@H]1CC/C(C(=O)O)=C\CC[C@@]1(C)O[C@@H]21`, for which the IC50 with T-cell was above 10 µM.

For `C=C1C(=O)O[C@H]2[C@H]1CC/C(CO)=C\CC[C@@]1(C)O[C@@H]21`, the AC50 on Pyruvate kinase PKM amounted to 0.867 µM. This compound also had an IC50 with T-cell of 1.59 µM. As for `C=C1C(=O)O[C@H]2[C@H]1CC/C(COC(=O)N(C)C)=C\CC[C@@]1(C)O[C@@H]21`, the AC50 at Pyruvate kinase PKM was determined as 1.57 µM. This compound returned an IC50 with T-cell of 1.63 µM.

Regarding `C=C1C(=O)O[C@H]2[C@H]1C[C@@H](O)/C(C)=C/CC[C@@]1(C)O[C@@H]21`, the IC50 in the test on T-cell came to 3.47 µM. This lies in the single-digit micromolar range. Consider `C=C1C(=O)O[C@H]2[C@H]1CC/C(COC(=O)N(CCC)CCC)=C\CC[C@@]1(C)O[C@@H]21`, for which the AC50 at Pyruvate kinase PKM is 0.66 µM. The compound also came in with an IC50 with T-cell of 1.18 µM.

Compound `C=C1C(=O)O[C@H]2[C@H]1CC/C(C=O)=C\CC[C@@]1(C)O[C@@H]21` gave an IC50 in the test with T-cell above 10 µM. `C/C1=C\CC[C@@]2(C)O[C@H]2[C@H]2OC(=O)/C(=C/c3cccc4ccccc34)[C@@H]2CC1` came in with an IC50 with T-cell of 4.53 µM. For `C=C1C(=O)O[C@H]2[C@H]1CC/C(CNS(=O)(=O)c1ccc([N+](=O)[O-])cc1)=C\CC[C@@]1(C)O[C@@H]21`, the concentration at half-maximal activity (AC50) on Pyruvate kinase PKM worked out at 0.966 µM. The same compound returned an IC50 with T-cell of 1.32 µM. In the test with T-cell, `COc1ccc(/C=C2/C(=O)O[C@H]3[C@H]2CC/C(C)=C/CC[C@@]2(C)O[C@@H]32)cc1` yielded an IC50 of 4.6 µM. As to `C=C1C(=O)O[C@H]2[C@H]1CC/C(CNS(=O)(=O)CC)=C\CC[C@@]1(C)O[C@@H]21`, at Pyruvate kinase PKM, the AC50 was above 3 µM. For the same compound, in the test on T-cell, the IC50 amounted to 2.97 µM. The matching figures for `C=C1C(=O)O[C@H]2[C@H]1CC/C(CNS(=O)(=O)c1ccccc1)=C\CC[C@@]1(C)O[C@@H]21`: 0.637 µM and 1.2 µM.
